ChEMBL document CHEMBL5653631, “A Potent and Selective ULK1 Inhibitor Suppresses Autophagy and Sensitizes Cancer Cells to Nutrient Stress” (iScience, 2018)

What was measured:
[1] = target: Maternal embryonic leucine zipper kinase (Homo sapiens) (UniProt Q14680); experiment: Inhibition of human recombinant MELK at 15 nM related to control ULK1
[2] = target: TGF-beta receptor type-2 (Homo sapiens) (UniProt P37173); experiment: Inhibition of human recombinant TGFbR2 at 15 nM in presence of ATP by radiometric assay relative to control
[3] = target: T1, Serine/threonine-protein kinase TBK1 (Homo sapiens) (UniProt Q9UHD2); experiment: Inhibition of human recombinant TBK1 at 15 nM in presence of ATP by radiometric assay relative to control
T1 sequence (whole entry): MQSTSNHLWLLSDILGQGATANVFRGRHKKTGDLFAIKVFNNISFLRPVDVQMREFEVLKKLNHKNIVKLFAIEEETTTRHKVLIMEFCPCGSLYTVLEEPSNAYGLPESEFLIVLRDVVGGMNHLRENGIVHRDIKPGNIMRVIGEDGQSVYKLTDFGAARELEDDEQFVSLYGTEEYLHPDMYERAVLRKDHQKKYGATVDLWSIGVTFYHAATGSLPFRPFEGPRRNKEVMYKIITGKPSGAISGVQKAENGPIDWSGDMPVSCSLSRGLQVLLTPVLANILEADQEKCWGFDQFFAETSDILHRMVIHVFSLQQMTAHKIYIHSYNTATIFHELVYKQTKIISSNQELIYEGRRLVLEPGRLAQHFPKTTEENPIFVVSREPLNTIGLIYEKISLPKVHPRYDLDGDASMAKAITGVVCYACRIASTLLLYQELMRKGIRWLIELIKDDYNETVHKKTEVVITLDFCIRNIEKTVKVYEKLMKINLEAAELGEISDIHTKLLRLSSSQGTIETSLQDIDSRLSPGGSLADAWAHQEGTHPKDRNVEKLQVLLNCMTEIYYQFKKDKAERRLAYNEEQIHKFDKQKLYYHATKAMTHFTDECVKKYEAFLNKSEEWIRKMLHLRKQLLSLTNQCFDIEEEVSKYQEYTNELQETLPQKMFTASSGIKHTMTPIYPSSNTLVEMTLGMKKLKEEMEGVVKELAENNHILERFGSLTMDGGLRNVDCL

[4] = target: T2, Serine/threonine-protein kinase tousled-like 1 (Homo sapiens) (UniProt Q9UKI8); experiment: Inhibition of human recombinant TLK1 at 40 nM in presence of ATP by radiometric assay relative to control
T2 sequence (whole entry): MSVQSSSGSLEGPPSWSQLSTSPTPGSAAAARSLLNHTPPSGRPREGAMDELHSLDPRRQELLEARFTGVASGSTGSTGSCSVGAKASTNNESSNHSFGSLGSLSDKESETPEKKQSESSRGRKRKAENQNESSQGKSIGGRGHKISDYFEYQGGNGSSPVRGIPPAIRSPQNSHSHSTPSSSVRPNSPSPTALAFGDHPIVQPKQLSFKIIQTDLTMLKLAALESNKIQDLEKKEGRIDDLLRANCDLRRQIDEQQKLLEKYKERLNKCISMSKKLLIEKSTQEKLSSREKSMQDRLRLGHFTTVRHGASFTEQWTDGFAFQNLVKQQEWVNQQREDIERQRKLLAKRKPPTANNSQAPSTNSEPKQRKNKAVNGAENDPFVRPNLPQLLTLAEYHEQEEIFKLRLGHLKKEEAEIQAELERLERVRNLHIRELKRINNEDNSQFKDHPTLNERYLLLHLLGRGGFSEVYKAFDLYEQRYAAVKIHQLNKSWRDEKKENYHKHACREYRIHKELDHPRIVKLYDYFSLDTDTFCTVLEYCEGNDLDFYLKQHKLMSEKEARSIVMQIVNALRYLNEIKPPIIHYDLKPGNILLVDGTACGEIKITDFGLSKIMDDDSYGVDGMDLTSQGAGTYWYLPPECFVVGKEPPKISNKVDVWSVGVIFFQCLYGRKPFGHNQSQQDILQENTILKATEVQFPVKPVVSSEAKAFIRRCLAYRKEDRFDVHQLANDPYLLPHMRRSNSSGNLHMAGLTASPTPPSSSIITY

[5] = target: T3, Ephrin type-B receptor 2 (Homo sapiens) (UniProt P29323); experiment: Inhibition of human recombinant EphB2 at 40 nM related to control ULK1
T3 sequence (whole entry): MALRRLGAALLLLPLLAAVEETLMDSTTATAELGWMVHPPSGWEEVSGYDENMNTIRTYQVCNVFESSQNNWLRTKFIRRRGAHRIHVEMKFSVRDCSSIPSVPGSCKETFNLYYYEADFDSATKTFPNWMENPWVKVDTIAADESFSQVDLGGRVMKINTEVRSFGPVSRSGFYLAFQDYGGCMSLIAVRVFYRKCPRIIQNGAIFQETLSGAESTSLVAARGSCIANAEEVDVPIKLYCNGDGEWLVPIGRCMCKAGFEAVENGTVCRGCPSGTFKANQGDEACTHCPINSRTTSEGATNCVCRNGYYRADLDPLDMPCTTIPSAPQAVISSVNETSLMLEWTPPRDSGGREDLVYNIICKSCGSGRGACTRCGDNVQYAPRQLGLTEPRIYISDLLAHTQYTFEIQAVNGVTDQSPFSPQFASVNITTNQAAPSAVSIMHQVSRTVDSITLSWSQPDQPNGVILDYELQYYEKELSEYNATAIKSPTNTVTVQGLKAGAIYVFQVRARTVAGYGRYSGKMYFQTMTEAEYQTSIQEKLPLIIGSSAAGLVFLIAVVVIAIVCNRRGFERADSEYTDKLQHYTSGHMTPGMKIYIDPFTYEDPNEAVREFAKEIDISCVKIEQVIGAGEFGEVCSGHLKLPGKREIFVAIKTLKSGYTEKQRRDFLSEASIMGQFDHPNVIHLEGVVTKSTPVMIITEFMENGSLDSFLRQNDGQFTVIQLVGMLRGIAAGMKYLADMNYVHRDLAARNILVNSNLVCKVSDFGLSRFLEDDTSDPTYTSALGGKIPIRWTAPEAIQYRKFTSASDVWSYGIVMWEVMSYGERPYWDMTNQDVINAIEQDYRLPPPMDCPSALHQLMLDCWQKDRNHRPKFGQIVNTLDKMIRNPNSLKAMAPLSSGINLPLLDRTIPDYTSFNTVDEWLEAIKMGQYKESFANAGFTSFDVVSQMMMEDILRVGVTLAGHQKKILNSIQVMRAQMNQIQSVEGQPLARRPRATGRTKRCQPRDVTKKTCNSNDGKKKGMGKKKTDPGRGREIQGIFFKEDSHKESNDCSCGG

[6] = target: Serine/threonine-protein kinase 32B (Homo sapiens) (UniProt Q9NY57); experiment: Inhibition of human recombinant YANK2 at 40 nM in presence of ATP by radiometric assay relative to control
Sequence of Serine/threonine-protein kinase 32B (Homo sapiens) (Q9NY57 whole entry): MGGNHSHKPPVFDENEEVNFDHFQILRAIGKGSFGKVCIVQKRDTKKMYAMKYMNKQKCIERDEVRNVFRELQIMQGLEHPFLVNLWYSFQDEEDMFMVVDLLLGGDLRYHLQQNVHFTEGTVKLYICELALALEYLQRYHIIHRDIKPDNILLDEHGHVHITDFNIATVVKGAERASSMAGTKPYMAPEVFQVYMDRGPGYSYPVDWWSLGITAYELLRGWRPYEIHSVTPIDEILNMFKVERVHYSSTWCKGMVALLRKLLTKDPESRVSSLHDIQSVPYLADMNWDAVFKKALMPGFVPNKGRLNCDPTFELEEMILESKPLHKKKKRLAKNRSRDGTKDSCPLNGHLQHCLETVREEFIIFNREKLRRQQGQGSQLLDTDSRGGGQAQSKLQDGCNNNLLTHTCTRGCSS

Sequence of TGF-beta receptor type-2 (Homo sapiens) (P37173 whole entry): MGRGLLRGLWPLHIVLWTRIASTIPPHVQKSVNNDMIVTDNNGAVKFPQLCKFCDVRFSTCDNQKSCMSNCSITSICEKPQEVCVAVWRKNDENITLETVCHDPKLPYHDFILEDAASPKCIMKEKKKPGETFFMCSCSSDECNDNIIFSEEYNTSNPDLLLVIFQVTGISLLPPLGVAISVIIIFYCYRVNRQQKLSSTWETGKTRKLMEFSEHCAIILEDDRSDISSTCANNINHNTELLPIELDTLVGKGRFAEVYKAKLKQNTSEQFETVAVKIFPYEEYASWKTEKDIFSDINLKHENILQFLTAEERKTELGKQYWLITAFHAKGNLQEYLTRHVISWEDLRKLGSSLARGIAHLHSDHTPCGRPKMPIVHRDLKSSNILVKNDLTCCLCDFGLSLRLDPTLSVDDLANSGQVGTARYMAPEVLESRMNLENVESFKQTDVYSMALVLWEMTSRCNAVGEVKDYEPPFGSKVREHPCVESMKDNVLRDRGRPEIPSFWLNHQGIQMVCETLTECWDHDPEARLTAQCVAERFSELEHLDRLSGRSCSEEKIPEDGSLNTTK
Sequence of Maternal embryonic leucine zipper kinase (Homo sapiens) (Q14680 whole entry, looked up): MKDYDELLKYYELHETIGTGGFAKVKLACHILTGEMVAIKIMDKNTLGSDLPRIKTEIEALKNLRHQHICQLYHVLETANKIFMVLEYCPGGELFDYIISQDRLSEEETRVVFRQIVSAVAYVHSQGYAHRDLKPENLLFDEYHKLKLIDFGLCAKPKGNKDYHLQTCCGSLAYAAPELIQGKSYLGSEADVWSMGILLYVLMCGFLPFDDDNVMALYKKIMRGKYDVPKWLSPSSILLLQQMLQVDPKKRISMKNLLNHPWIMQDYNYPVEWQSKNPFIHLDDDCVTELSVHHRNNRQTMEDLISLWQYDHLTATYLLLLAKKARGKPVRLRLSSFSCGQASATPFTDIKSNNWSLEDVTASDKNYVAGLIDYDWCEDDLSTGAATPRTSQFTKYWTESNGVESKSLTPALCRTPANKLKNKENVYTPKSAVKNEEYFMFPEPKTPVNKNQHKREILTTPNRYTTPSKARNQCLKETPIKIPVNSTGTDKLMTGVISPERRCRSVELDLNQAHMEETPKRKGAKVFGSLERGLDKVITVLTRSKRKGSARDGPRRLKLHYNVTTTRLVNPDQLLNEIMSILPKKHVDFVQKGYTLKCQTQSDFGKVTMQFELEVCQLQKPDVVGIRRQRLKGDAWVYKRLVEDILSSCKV

| fold change (FC) [1] | inhibition [2] [%] | inhibition [3] [%] | inhibition [4] [%] | fold change (FC) [5] | inhibition [6] [%] | SMILES |
| --- | --- | --- | --- | --- | --- | --- |
| 0.76 | 42 | 79 | – | – | – | CC(C)[C@H](NC(=O)c1cc(-c2cnn3cc(-c4ccc(OCCN5CCCCC5)cc4)cnc23)cs1)C(F)(F)F |
| – | – | – | 0 | 0.05 | 3 | O=C(N[C@@H](C1CC1)C(F)(F)F)c1cc(-c2cnn3cc(-c4ccc(F)cc4)cnc23)cs1 |
